Laboratory results from PubChem BioAssay AID1963429 (Molecular Pharmacology Branch, DTP, NCI, 2024).

Test system: 126254-015-R-J1-PDC complex spheroid growth, % test/control
Assay: Anticancer human tumor 126254-015-R-J1-PDC patient-derived soft tissue sarcoma cell line growth inhibition [Asc]
Conditions: for IC50: curve of first compound; for viability, T/C: stronger effect = lower value
Description: Multicellular complex tumor spheroid response to apoptosis pathway targeting inhibitors Alrizomadlin, Pelcitoclax, and Dasminapant in combination with a variety of drugs and investigational agents in selected tumor cell lines
The MDM2 inhibitor alrizomadlin, the Bcl-2/Bcl-xL inhibitor pelcitoclax, and the IAPs inhibitor dasminapant were evaluated both individually and in combination with standard of care and investigational anticancer small molecules within a complex spheroid model of solid tumors. . Complex spheroids include a stromal component modeled by human endothelial cells (HUVEC) and fibroblasts modeled by human mesenchymal stem cells (MSCs). The concentration ranges selected for each drug and investigational agent were based upon clinically achievable concentrations if the clinical Cmax of the agent was known.
Compounds. The drugs and investigational agents: alrizomadlin (APG-115; NSC831270), pelcitoclax (APG-1252; NSC835773), dasminapant (APG-1387;NSC834197), TAK-243 (NSC785004), copanlisib (NSC809693), olaparib (NSC753686), talazoparib (NSC767125), cobimetinib (NSC 768068), eltanexor (KPT-8602, NSC 794443), abemaciclib (NSC 768073), sotorasib (NSC818433), adagrasib (NSC 831453), MRTX-1133 (NSC 836407), Iadademestat (ORY1001, NSC 806812), and RMC-4630 (NSC839698), were obtained from the NCI Developmental Therapeutics Program Chemical Repository. The FDA-approved anticancer drug set is available from the Developmental Therapeutics Program at https://dtp.cancer.gov/organization/dscb/obtaining/available plates.htm. […] The stock solutions were prepared in dimethyl sulfoxide (DMSO, Sigma-Aldrich, St. Louis, MO, cat. D2650) at 800-fold the tested concentration and stored at -70 degrees C prior to their use. All drugs and investigational agents were tested over a range starting from a high concentration at or near the clinical Cmax and decreasing in half-log increments. If the clinical Cmax for an agent had not been determined, the highest concentration tested was 10 microM.
The patient-derived cancer (PDC) cell lines include five colon adenocarcinomas: 186277-243-T-J2-PDC, 616215-338-R-J1-PDC, 439559-082-T-J2-PDC, 463943-066-T-J2-PDC, and 519858-162-T-J1-PDC; three pancreatic carcinomas: 323965-272-R-J2-PDC, 521955-158-R6-J3-PDC, and 521955-158-R2-J5-PDC; two uterine sarcomas: 327498-152-R-J2-PDC and 993429-296-R-J1-PDC; two rhabdomyosarcomas: 755483-174-R-J1-PDC and 772245-204-R-J1-PDC; two soft tissue sarcomas: 126254-015-R-J1-PDC and 494315-158-R-J1-PDC; two malignant fibrous histiocytomas: 317291-083-R-J1-PDC and 596521-263-R-J1-PDC; two breast carcinomas: 171881-019-R-J1-PDC and 885512-296-R-J2-PDC; and one ovarian carcinoma: 6556581-035-R-J-PDC were obtained from the NCI PDMR, (https://pdmr.cancer.gov). The established cell lines HSSY-2 synovial sarcoma (RRID:CVCL 8719), SYO-1 synovial sarcoma (RRID:CVCL_7146), MPNST malignant peripheral neural sheath tumor were obtained from the Sloan Kettering Institute. The following established cell lines were purchased from the American Type Culture Collection (ATCC, Manassas, VA), Sor the received from the NCI repository:, PANC-1 pancreatic carcinoma (CRL-1469, RRID:CVCL_0480), OVCAR-5 ovarian carcinoma (RRID:CVCL_1628), OVCAR-8 ovarian carcinoma (RRID:CVCL_1629), , MCF-7 breast carcinoma (CRL-12584, RRID:CVCL_0031), MDA-MB-231 breast carcinoma (CRL-12532, RRID:CVCL_0062), NCI-H1876 small cell lung carcinoma (CRL-5902, RRID:CVCL_1503), NCI-H510A small cell lung carcinoma (HTB-184, RRID:CVCL_1565), NCI-H1417 (CRL-5869, RRID:CVCL_1469), and NCI-H196 small cell lung carcinoma (CRL-5823, RRID:CVCL_1509). Dr. Peter Houghton (Greehey Children's Cancer Research Institute, University of Texas Health Science Center, San Antonio, TX) provided Rh-18 rhabdomyosarcoma (RRID:CVCL_1659). Pooled donor human umbilical vein endothelial cells (HUVEC, Lonza, cat. CC-2519) and human mesenchymal stem cells (hMSC, Lonza, cat. PT-2501) were purchased from Lonza (Walkersville, MD).
Cell Culture. […]
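Note: spheroids exposed to compound for seven days.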
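Throughout, for viability, T/C: 100% = DMSO vehicle control wells.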

## COc1c(OCCCN2CCOCC2)ccc2c3n(c(=NC(=O)c4cnc(N)nc4)nc12)CCN3 + CCN1C(C(=O)NC23CCC(C(=O)O)(CC2)CC3)C(c2cccc(Cl)c2F)C2(C(=O)Nc3cc(Cl)ccc32)C12CCCCC2
Second compound 0.03 µM
  IC50: 44.2 nM
Second compound 0.0949 µM
  IC50: 38.6 nM
Second compound 0.3 µM
  IC50: 37.4 nM
Second compound 0.949 µM
  IC50: 49.1 nM
Second compound 3 µM
  IC50: 51 nM
Second compound 0.03 µM, first compound 0.00316 µM
  viability, T/C: 93.9%
Second compound 0.03 µM, first compound 0.01 µM
  viability, T/C: 91.4%
Second compound 0.03 µM, first compound 0.0316 µM
  viability, T/C: 56.9%
Second compound 0.03 µM, first compound 0.1 µM
  viability, T/C: 28.8%
Second compound 0.03 µM, first compound 0.316 µM
  viability, T/C: 17.4%
Second compound 0.03 µM, first compound 1 µM
  viability, T/C: 11.1%
Second compound 0.0949 µM, first compound 0.00316 µM
  viability, T/C: 87.3%
Second compound 0.0949 µM, first compound 0.01 µM
  viability, T/C: 73.5%
Second compound 0.0949 µM, first compound 0.0316 µM
  viability, T/C: 57.5%
Second compound 0.0949 µM, first compound 0.1 µM
  viability, T/C: 25.8%
Second compound 0.0949 µM, first compound 0.316 µM
  viability, T/C: 16.1%
Second compound 0.0949 µM, first compound 1 µM
  viability, T/C: 9.86%
Second compound 0.3 µM, first compound 0.00316 µM
  viability, T/C: 89.3%
Second compound 0.3 µM, first compound 0.01 µM
  viability, T/C: 72.3%
Second compound 0.3 µM, first compound 0.0316 µM
  viability, T/C: 57.2%
Second compound 0.3 µM, first compound 0.1 µM
  viability, T/C: 26.9%
Second compound 0.3 µM, first compound 0.316 µM
  viability, T/C: 16.3%
Second compound 0.3 µM, first compound 1 µM
  viability, T/C: 10.5%
Second compound 0.949 µM, first compound 0.00316 µM
  viability, T/C: 93.6%
Second compound 0.949 µM, first compound 0.01 µM
  viability, T/C: 86.5%
Second compound 0.949 µM, first compound 0.0316 µM
  viability, T/C: 61.8%
Second compound 0.949 µM, first compound 0.1 µM
  viability, T/C: 30.3%
Second compound 0.949 µM, first compound 0.316 µM
  viability, T/C: 15.6%
Second compound 0.949 µM, first compound 1 µM
  viability, T/C: 10.4%
Second compound 3 µM, first compound 0.00316 µM
  viability, T/C: 87.2%
Second compound 3 µM, first compound 0.01 µM
  viability, T/C: 85.3%
Second compound 3 µM, first compound 0.0316 µM
  viability, T/C: 62.6%
Second compound 3 µM, first compound 0.1 µM
  viability, T/C: 31.2%
Second compound 3 µM, first compound 0.316 µM
  viability, T/C: 16.4%
Second compound 3 µM, first compound 1 µM
  viability, T/C: 10.9%

## CNC(C)C(=O)NC1CN(S(=O)(=O)c2cccc(S(=O)(=O)N3CCC4CCC(C(=O)NC(c5ccccc5)c5ccccc5)N4C(=O)C(NC(=O)C(C)NC)C3)c2)CCC2CCC(C(=O)NC(c3ccccc3)c3ccccc3)N2C1=O (stereo not given) + Cc1c(S(C)(=O)=O)c(-c2cc(F)cc(N3CCN(c4ccc(NS(=O)(=O)c5ccc(NC(CCN6CCC(C(=O)OCCCP(=O)(O)O)CC6)CSc6ccccc6)c(S(=O)(=O)C(F)(F)F)c5)cc4)CC3)c2)c(-c2ccc(Cl)cc2)n1C(C)C
Second compound 0.1 µM
  IC50: > 1000 nM
Second compound 0.316 µM
  IC50: 90.5 nM
Second compound 1 µM
  IC50: 107 nM
Second compound 3.16 µM
  IC50: 74.8 nM
Second compound 10 µM
  IC50: 59.8 nM
Second compound 0.1 µM, first compound 0.00316 µM
  viability, T/C: 83%
Second compound 0.1 µM, first compound 0.01 µM
  viability, T/C: 84.8%
Second compound 0.1 µM, first compound 0.0316 µM
  viability, T/C: 67.3%
Second compound 0.1 µM, first compound 0.1 µM
  viability, T/C: 55.6%
Second compound 0.1 µM, first compound 0.316 µM
  viability, T/C: 56.2%
Second compound 0.1 µM, first compound 1 µM
  viability, T/C: 45%
Second compound 0.316 µM, first compound 0.00316 µM
  viability, T/C: 85.8%
Second compound 0.316 µM, first compound 0.01 µM
  viability, T/C: 81.9%
Second compound 0.316 µM, first compound 0.0316 µM
  viability, T/C: 63.1%
Second compound 0.316 µM, first compound 0.1 µM
  viability, T/C: 47.3%
Second compound 0.316 µM, first compound 0.316 µM
  viability, T/C: 49.7%
Second compound 0.316 µM, first compound 1 µM
  viability, T/C: 36.5%
Second compound 1 µM, first compound 0.00316 µM
  viability, T/C: 87.5%
Second compound 1 µM, first compound 0.01 µM
  viability, T/C: 81.5%
Second compound 1 µM, first compound 0.0316 µM
  viability, T/C: 66.9%
Second compound 1 µM, first compound 0.1 µM
  viability, T/C: 47.9%
Second compound 1 µM, first compound 0.316 µM
  viability, T/C: 46.9%
Second compound 1 µM, first compound 1 µM
  viability, T/C: 36.3%
Second compound 3.16 µM, first compound 0.00316 µM
  viability, T/C: 90.7%
Second compound 3.16 µM, first compound 0.01 µM
  viability, T/C: 79%
Second compound 3.16 µM, first compound 0.0316 µM
  viability, T/C: 60.7%
Second compound 3.16 µM, first compound 0.1 µM
  viability, T/C: 46.1%
Second compound 3.16 µM, first compound 0.316 µM
  viability, T/C: 38.1%
Second compound 3.16 µM, first compound 1 µM
  viability, T/C: 32.6%
Second compound 10 µM, first compound 0.00316 µM
  viability, T/C: 80.2%
Second compound 10 µM, first compound 0.01 µM
  viability, T/C: 78.6%
Second compound 10 µM, first compound 0.0316 µM
  viability, T/C: 64.3%
Second compound 10 µM, first compound 0.1 µM
  viability, T/C: 38.2%
Second compound 10 µM, first compound 0.316 µM
  viability, T/C: 30.6%
Second compound 10 µM, first compound 1 µM
  viability, T/C: 27.8%
